Read-outs that look alike come from different tables or passages of the source. Where a SMILES comes first, the peptide text is derived from it. Where no end group is shown, it is not given here. [ ]: non-standard residue; d: D form. 2Nal = N[C@@H](Cc1ccc2ccccc2c1)C(=O)O

The assay addresses ERBIN PDZ domain (Homo sapiens, UniProt Q96RT1). The assay is described as follows: Competition ELISA, ERBIN PDZ-GST binding to immobilized biotinylated peptide. More on the design: made in house; host or cells: E. coli. The following applies: for fold less potent than Ac-WETWV (SEQ ID NO:225): Alanine scanning of WETWV peptide. The procedure: Binding affinities of the peptides for the ERBIN PDZ domain were determined as IC50 values using competition ELISAs. […] Assay plates were prepared by coating Maxisorp plates overnight at 4° C. with 65 μl of a 2 μg/ml solution of neutravidin in PBS. The plates were then blocked through addition of 65 μl of a 1% solution of bovine serum albumin (BSA) in PBS for 1 hour at room temperature, then washed 10 times with PBS containing 0.05% Tween-20. 65 μl of the amino-terminally biotinylated peptide PDZ 501 (TGWETWV; SEQ ID NO:222) was then added at a concentration of 100 nM in PBS with 0.5% BSA and 0.05% Tween-20 and incubated for 1 hour at room temperature. Simultaneously, binding reactions consisting of serial dilutions of the test compounds in PBS with 0.5% BSA and 0.05% Tween-20 containing 2 μg/ml ERBIN PDZ-GST fusion protein were incubated for 1 hour at room temperature. The plate coated with the immobilized peptide was again washed 10 times before 65 μl of each binding reaction was added to a well and incubated for 15 minutes at room temperature. The plates were again washed 10 times before being developed by incubating for 30 minutes with a 1:1000 dilution of anti-mouse HRP conjugated antibody and a 1:2000 dilution of a mouse anti-GST antibody in PBS with 0.5% BSA and 0.05% Tween-20. The plates were washed 10 times, then incubated with 100 μl HRP substrate for 5 minutes and the color developed through addition of 100 μl of 1 M H3PO4. The plates were read at 450 nm and the absorption fit to a binding curve using a least squares fit.
Binding affinities of the peptides for the ERBIN PDZ domain were determined as IC50 values using competition ELISAs. […] Assay plates were prepared by coating microwell plates overnight with neutravidin. The plates were then blocked through addition of BSA, and then amino-terminally biotinylated WETWV (SEQ ID NO:225) was then bound to the plates. Simultaneously, binding reactions consisting of serial dilutions of the test peptides with ERBIN PDZ-GST fusion proteins were performed. The plate coated with the immobilized WETWV (SEQ ID NO:225) was extensively washed before adding each binding reaction to the wells and briefly incubated. After further washing, anti-mouse HRP conjugated antibody and a mouse anti-GST antibody were added. The plates were then developed with HRP substrate and H3PO4, and then read at 450 nm. The absorption fit to a binding curve using a least squares fit. Thus the ability of the various peptides to inhibit ERBIN PDZ domain from binding its cognate was measured. […]
On the technique in general: ELISA stands for enzyme-linked immunosorbent assay.

Where [1] appears, read: Substitutions for threonine at the −2 position and glutamate at the −3 position.
[2] abbreviates: ERBIN peptide truncations with N-terminal acylation.
Setting [3] is: Substitutions for tryptophan at the −1 position.
Setting [4] is: Small molecules that inhibit ERBIN PDZ domain from binding immobilized WETWV, read-out: IC50.
Where [5] appears, read: ERBIN peptide truncations without N-terminal acylation.
The mark [6] stands for this setting: ERBIN peptide truncations without N-terminal acylation, read-out: IC50.
Where [7] appears, read: ERBIN peptide truncations with N-terminal acylation, read-out: IC50.

ERBIN PDZ domain, sequence (Q96RT1 1258-1412): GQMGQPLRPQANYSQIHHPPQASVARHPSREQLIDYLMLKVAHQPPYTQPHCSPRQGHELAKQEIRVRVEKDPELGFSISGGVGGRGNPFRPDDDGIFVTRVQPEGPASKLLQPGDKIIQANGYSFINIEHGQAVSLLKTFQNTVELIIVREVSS

What is called IC50 is the midpoint of a concentration-inhibition curve. Ac-WATWV [Ac-WATWV]: the IC50 came out at 14.8 µM and the “fold less potent than Ac-WETWV (SEQ ID NO:225)” value turned out to be 30.3 fold.
As to Ac-WDTWV [Ac-WDTWV], the IC50 stood at 1.7 µM. The “fold less potent than Ac-WETWV” value under setting [1] is 3.4 fold.
For the compound Ac-WETWV [Ac-WETWV], the IC50 worked out at 0.5 µM and the “fold less potent than Ac-WETWV (SEQ ID NO:225)” value was found to be 1 fold. For the same compound, under setting [2], the “fold less potent than Ac-GWETWV” value is given as 0.5 fold. The “fold less potent than Ac-WETWV” value under setting [1] was determined as 1 fold. Moreover, the “fold less potent than Ac-WETWV” value under setting [3] is reported as 1 fold.
Regarding `CC(C)C(NC(=O)C(Cc1cc2ccccc2[nH]1)NC(=O)C1CCc2ccccc2C1)C(=O)O` (centres unmarked) [WV 38], the IC50 under setting [4] came to 304 µM.
Regarding Ac-AETWV [Ac-AETWV], the half-inhibitory concentration (IC50) was determined as 4 µM and the “fold less potent than Ac-WETWV (SEQ ID NO:225)” value is reported as 8.2 fold.
Ac-GWETWV [Ac-GWETWV]: the IC50 was determined as 0.9 µM. The “fold less potent than Ac-GWETWV” value under setting [2] was 1.0 fold.
For `CC(C)[C@H](NC(=O)[C@H](Cc1c[nH]c2ccccc12)NC(=O)[C@@H](N)[C@@H](C)O)C(=O)O` [H1N -TWV] (H-Thr-Trp-Val-OH; C-terminus assumed), the “fold less potent than H1N -GWETWV” value under setting [5] is 73.6 fold. Besides, the 50% inhibitory concentration (IC50) under setting [6] was 105 µM.
Ac-WEVWV [Ac-WEVWV] gave an IC50 of 4.8 µM. Moreover, the “fold less potent than Ac-WETWV” value under setting [1] turned out to be 9.8 fold.
Take H-WETWV [H1N -WETWV]: the concentration for half-maximal inhibition (IC50) was 0.2 µM. For the same compound, the “fold less potent than H1N -GWETWV” value under setting [5] worked out at 0.2 fold.
Turning to Ac-WETFV [Ac-WETFV], the IC50 was 14.5 µM. Under setting [3], the “fold less potent than Ac-WETWV” value stood at 295 fold.
As for H-GWETWV [H1N-GWETWV], the IC50 was 1.4 µM. Besides, under setting [5], the “fold less potent than H1N -GWETWV” value is 1.0 fold.
Regarding Ac-WETYV [Ac-WETYV], the IC50 is 42.5 µM. Besides, the “fold less potent than Ac-WETWV” value under setting [3] worked out at 86.7 fold.
Taken in the same sequence, the figures for `CC(=O)N[C@@H](Cc1c[nH]c2ccccc12)C(=O)N[C@@H](CCC(=O)O)C(=O)N[C@H](C(=O)N[C@@H](Cc1ccc2ccccc2c1)C(=O)N[C@H](C(=O)O)C(C)C)[C@@H](C)O` [Ac-WETNapV] (Ac-WET[2Nal]V-OH; C-terminus assumed) were 0.6 µM and 1.1 fold.
For the compound `CC(C)C(NC(=O)C(Cc1cc2ccccc2[nH]1)NC(=O)c1ccc(-c2ccc([N+](=O)[O-])cc2)o1)C(=O)O` (centres unmarked) [WV 58], the IC50 under setting [4] is 697 µM.
Regarding Ac-WEAWV [Ac-WEAWV], the IC50 turned out to be 12.4 µM and the “fold less potent than Ac-WETWV (SEQ ID NO:225)” value was 25.3 fold.
In the case of `CC(C)C(NC(=O)C(Cc1cc2ccccc2[nH]1)NC(=O)c1cnc2ccccc2n1)C(=O)O` (centres unmarked) [WV 46], under setting [4], the 50% inhibitory concentration (IC50) was 334 µM.
For the compound Ac-WESWV [Ac-WESWV], the IC50 turned out to be 2.5 µM. For the same compound, the “fold less potent than Ac-WETWV” value under setting [1] is 5.2 fold.
Consider `CC(=O)N[C@@H](Cc1c[nH]c2ccccc12)C(=O)N[C@H](C(=O)O)C(C)C` [Ac-WV] (Ac-Trp-Val-OH; C-terminus assumed), for which, under setting [2], the “fold less potent than Ac-GWETWV” value was found to be 78.7 fold. In addition, under setting [7], the 50% inhibitory concentration (IC50) was 77.8 µM.
On to Ac-WETAV [Ac-WETAV], for which the IC50 came to 34 µM and the “fold less potent than Ac-WETWV (SEQ ID NO:225)” value turned out to be 69.3 fold. Besides, under setting [3], the “fold less potent than Ac-WETWV” value is listed as 69.3 fold.
As for `CC(C)C(NC(=O)C(Cc1cc2ccccc2[nH]1)NC(=O)c1cc2ccccc2[nH]1)C(=O)O` (centres unmarked) [WV 66], the IC50 under setting [4] came to 549 µM.
Take `CC(C)[C@H](NC(=O)[C@H](Cc1c[nH]c2ccccc12)NC(=O)[C@@H](NC(=O)[C@@H](N)CCC(=O)O)[C@@H](C)O)C(=O)O` [H1N -ETWV] (H-ETWV-OH; C-terminus assumed): the “fold less potent than H1N -GWETWV” value under setting [5] is reported as 11.5 fold. Moreover, under setting [6], the IC50 was 16.5 µM.
Consider `CC(=O)N[C@@H](CCC(=O)O)C(=O)N[C@H](C(=O)N[C@@H](Cc1c[nH]c2ccccc12)C(=O)N[C@H](C(=O)O)C(C)C)[C@@H](C)O` [Ac-ETWV] (Ac-ETWV-OH; C-terminus assumed), for which the “fold less potent than Ac-GWETWV” value under setting [2] came out at 5.1 fold. Besides, under setting [7], the IC50 came to 4.9 µM.
